Assay results reported in patent EP0370436A2, “Novel benzothiazole and benzimidazole derivatives and antiulcer agent containing the same” (MEIJI SEIKA KAISHA LTD., priority 1988, dated 1990).
Marks after values point to notes of the source that are not given here.

How the values were obtained:
Assay type in all cases: in vivo
male Wister rats = assay: Submerged restraint stress ulcer test; details: Rattus norvegicus, oral, once, 30 mg/5 ml/kg body weight in 0.5% CMC, 1 h before 6 h water immersion restraint stress, read-out: Ulceration inhibitory ratio (%)
Description: A test compound as shown in Table 1 was suspended in 0.5% carboxymethylcellulose (CMC) and orally administered once to male Wister rats aged 11 weeks, which had been fasted for 18 hours, at a dose of 30 mg/5 ml/kg body weight. Similarly, 5 ml of 0.5% CMC was administered to a control group. One hour after the administration of the test compound, the rats were kept in restraining gages and immersed in water at 20 to 22°C up to the chest. Then, these animals were allowed to stand as such for six hours so as to load a stress. After pulling up from the water, each animal was sacrificed by vertebral cervical dislocation and the stomach was taken out. 5 ml of a 5% aqueous solution of formaldehyde was injected into the stomach and the stomach was immersed in said solution for 30 minutes for fixation. The specimen thus fixed was cut along the curvatura ventriculi major and the major axis of the formed ulcer was measured with a slide calipers (mm). The sum of the major axes of the total ulcers was made an ulcer index.
The ulceration inhibitory ratio was calculated according to the following equation: [formula]

male Donryu rats [1] = assay: Aspirin-induced ulcer test; details: oral, 30 mg/5 ml/kg body weight, 1 h before Aspirin 300 mg/5 ml/kg oral, sacrificed after four hours
Description: A test compound suspended in 0.5% carboxymethylcellulose orally administered to male Donryu rats, which had been fasted for 24 hours, at a dose of 30 mg/5 ml/kg body weight. Similarly, 5 ml of 0.5% CMC was administered to a control group. One hour after the administration of the test compound, Aspirin suspended in 0.5% CMC was orally administered to the rats at a dose of 300 mg/5 ml/kg body weight. After four hours, each animal was sacrificed and the stomach was taken out and treated with an aqueous solution of formaldehyde to determine the ulceration inhibitory ratio in the same manner as in the submerged restrain stress ulcer test.

male Donryu rats [2] = assay: Histamine-induced ulcer test; details: oral, once, 30 mg/5 ml/kg, 1 h before histamine dihydrochloride 200 mg/5 ml/kg i.p., sacrificed after five hours
Description: A compound obtained in Example 2 was suspended in 0.5% CMC and orally administered once to male Donryu rats, which had been fasted for 24 hours, at a dose of 30 mg/5 ml/kg. Similarly, 5 ml of 0.5% CMC was administered to a control group. One hour after the administration of the test compound, a solution of histamine dihydrochloride in a physiological saline solution was intraperitoneally administered to the rats at a dose of 200 mg/5 ml/kg. After five hours, each animal was sacrificed and the stomach was taken out and treated with an aqueous solution of formaldehyde to determine the ulceration inhibitory ratio in the same manner as in the above-described submerged restrain stress ulcer test. As a result, the ulceration inhibitory ratio was 50%.

male ICR mice = assay: Acute toxicity; details: oral, once, 1,000 mg/10 ml/kg body weight in 0.5% CMC; three male ICR mice; observed for seven days
From the text: A compound prepared in Example 2 was suspended in 0.5% CMC to give a predetermined concentration. Then, three male ICR mice aged 5 weeks were forced to orally take the above suspension once.

male Donryu rats [3] = assay: Ethanol-induced ulcer test; details: oral, 50 mg/5 ml/kg body weight, 1 h before 100% ethanol 5 ml/kg oral, sacrificed after one hour
Description: A compound obtained in Example 2 was suspended in 0.5% CMC and orally administered to male Donryu rats, which had been fasted for 48 hours and abstained from water for 24 hours, at a dose of […]. Similarly, 5 ml of 0.5% CMC was administered to a control group. One hour after the administration of the test compound, 100% ethanol was orally administered to the rats at a dose of 5 ml/kg body weight. After one hour, each animal was sacrificed and the stomach was taken out and treated in the above-mentioned manner. Then, erosion formation in the stomach was observed.
As a result, in a control group to which 0.5% CMC was given alone, erosion was formed at a frequency of almost 100%. In contrast thereto, in a test group to which the test compound was administered at a dose of 50 mg/5 ml/kg body weight, erosion formation was inhibited at a frequency of almost 100%. 5. Acute toxicity

Row | SMILES | inhibition in vivo at 30 mg/kg (male Wister rats) | also measured
1 | CCOCCSc1nc2cc(Cl)ccc2s1 [Example 1, 5-Chloro-2-[(2-ethoxyethyl)thio]benzothiazole] | 57% | Ulceration inhibitory ratio (%) (male Donryu rats [1]): 21.3%
2 | CCOCC[S+]([O-])c1nc2cc(Cl)ccc2s1 (stereo not shown) [Example 2, 5-Chloro-2-[(2-ethoxyethyl)sulfinyl]benzothiazole] | 93% | ulceration inhibitory ratio (male Donryu rats [2]): 50%; acute toxicity (death of animals) (male ICR mice): no animal died; erosion formation was inhibited at a frequency of (male Donryu rats [3]): ~100%; Ulceration inhibitory ratio (%) (male Donryu rats [1]): 85* %
3 | CCOCCS(=O)(=O)c1nc2cc(Cl)ccc2s1 [Example 3, 5-Chloro-2-[(2-ethoxyethyl)sulfonyl]benzothiazole] | 35.3% | –
4 | CCOCC[S+]([O-])c1nc2ccccc2s1 (stereo not shown) [Example 4, 2-[(2-Ethoxyethyl)sulfinyl]benzothiazole] | 59.9% | –
5 | [O-][S+](CCO)c1nc2cc(Cl)ccc2s1 (stereo not shown) [Example 9, 5-Chloro-2-[(2-hydroxyethyl)sulfinyl]benzothiazole] | 58.5% | –
6 | [O-][S+](CCOCCOCCO)c1nc2cc(Cl)ccc2s1 (stereo not shown) [Example 11, 5-Chloro-2-[{2-(2-hydroxyethoxy)ethoxy}ethylsulfinyl]benzothiazole] | 63.5% | –
7 | CCOCC[S+]([O-])c1nc2ccccc2[nH]1 (stereo not shown) [Example 17, 2-[(2-Ethoxyethyl)sulfinyl]benzimidazole] | 73.6% | –
8 | COc1ccc2[nH]c([S+]([O-])Cc3ncc(C)c(OC)c3C)nc2c1 (stereo not shown) [omeprazole, reference compound] | 99% | –
